Patent publication US6271342A, “Sugar-modified cytostatics” (Bayer Aktiengesellschaft, priority 1995, dated 2001)
Converted amounts (≈) assume the structure as drawn.

Legend:
[1] = system: B16F10 tumour; test: In vivo test, survival of mice with transplanted B16F10 tumour; design: species or system mouse; details: 0.1 mg/kg, treated daily
Method: Mice are inoculated with 5×10^6 B16F10 tumour cells on day 0. The animals in which tumour cells are transplanted develop solid peritoneal tumours and are then treated daily with test substances or with the vehicle control. In the control group, 50% of the animals usually die between day 14 and 20. The test substances are administered in buffer or an organic solvent system comprising 20% methanol and 20% dimethyl sulphoxide in 0.7% sodium chloride solution.
The therapeutic result arises from the prolonging of the survival time of the treated animals. […] A therapeutic index can be estimated from the tolerance and prolonging of the survival time.

[2] = system: OVXF 899; test: Two-layer soft agar culture of human tumour xenografts; format: cell-based; details: T/C ≤30%
Method: (§1) The in vitro activity of glycoconjugates of quinolone-a was determined on human tumour xenografts in a two-layer soft agar culture system according to Hamburger and Salmon (Science 197: 461-463).
(§2) The solid tumours were initially grown in the athymic naked mouse (NMRI nu/nu), obtained by surgery and comminuted mechanically. Individual cells were then obtained by incubation in an enzyme mixture of collagenase 0.05%, DNAse 0.07% and hyaluronidase 0.1% in RPMI at 37° C. for 30 minutes. The cells were washed 2× and then passed through a sieve of 200 μm and 20 μm mesh width.
(§3) The base layer comprises 0.2 ml of Iscoves's Modified Dulbeccos Medium with 20% foetal calf serum and 0.7% agar. 40,000 to 200,000 cells in 0.2 ml of the same medium and 0.4% agar were applied to this layer in 24 multiwell plates. The cytostatic substances were added in 0.2 ml of medium.
(§4) The cultures were incubated at 37° C. in a 7% CO2 atmosphere for 6 to 15 days. The colonies which had grown were then counted under an inverting microscope, the living colonies being stained with a tetrazolium chloride dyestuff 24 hours before the evaluation.
(§5) The effect of the active compound is expressed in per cent of surviving colonies compared with the colony count of untreated plates (T/C=colony count treated×100/control count untreated).
(§6) A substance is active if the T/C value is ≤30%.
(§7) This value is shown as the IC70 value in μg/ml in Table 8.

[3] = system: CXF 280; test: as above; format: cell-based; details: T/C ≤30%
Method: as §1, §2, §3, §4, §5, §6, §7

[4] = system: MEXF 989; test: as above; format: cell-based; details: T/C ≤30%
Method: as §1, §2, §3, §4, §5, §6, §7

[5] = system: HT 29; test: as above; format: cell-based; details: T/C ≤30%
Method: as §1, §2, §3, §4, §5, §6, §7

[6] = system: LXFL 529; test: as above; format: cell-based; details: T/C ≤30%
Method: as §1, §2, §3, §4, §5, §6, §7

[7] = system: SW 480; test: as above; format: cell-based; details: T/C ≤30%
Method: as §1, §2, §3, §4, §5, §6, §7

[8] = system: OVXF 1023; test: as above; format: cell-based; details: T/C ≤30%
Method: as §1, §2, §3, §4, §5, §6, §7

[9] = system: LXFS 538; test: as above; format: cell-based; details: T/C ≤30%
Method: as §1, §2, §3, §4, §5, §6, §7

[10] = system: bone marrow parent cells; test: Bone marrow parent cell proliferation after in vivo treatment; design: species or system mouse
Method: Mice are treated subcutaneously with 1, 3, 10 or 30 mg/kg of the compounds. At various times (3, 24, 48, 72 p. inj.) the femurs are removed and the bone marrow cells isolated. 2×10^5 cells are incubated with GM-CSF as described above and, after 7 days, the colonies and clusters are counted.

[11] = Acute toxicity, single administration; format: in vivo, nu/nu naked mice; details: single administration i.v., aqueous solution
Method: Determination of the Acute Toxicity of Glycoconjugates of Batracyline (Single Administration)
The acute toxicity of the batracyline derivatives was determined on nu/nu naked mice.
The substances administered i.v., as aqueous solutions, and the substances administered i.p., as solutions in dimethyl sulphoxide, were injected once in concentrations of up to 400 mg of substance per kg of mouse.
The individual dose tolerated was calculated from the decrease in the weight of the animals up to 21 days after administration and from the number of animals surviving.

[12] = system: bone marrow parent cells of the mouse; test: CSF-induced proliferation of bone marrow parent cells, in vitro; format: cell-based; details: recombinant murine GM-CSF, 7 days
Method: Bone marrow cells are flushed out of the femur of mice. 10^5 cells are incubated in McCoy SA medium (0.3% agar) together with recombinant murine GM-CSF (Genzyme; parent cell colony formation) and the substances (10^-4 to 100 μg/ml) at 37° C. and 7% CO2. 7 days later, the colonies ([…]) and clusters (17-50 cells) are counted.

[13] = system: B 16 F 10; test: Growth inhibition test (MTT) for cytotoxic properties; format: cell-based, mouse; details: Table 1b
How it was run: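 Cells in RPMI 1640 with 10% FCS pre-cultured 1 day at 37° C, then exposed to test substances in DMSO; growth checked after day 3 and day 6. Read-out by MTT, 5 h incubation, isopropanol solubilization, extinction at 540 nm.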

[14] = system: hepatoma; test: Cleavage kinetics with cells (HPLC); details: Table 2b; 37° C.
Method: Cleavage Kinetics With Cells
(§8) 2.25 ml of PBS are incubated together with 225 μl of a cell suspension (30 mg/ml) and 25 μl of substrate stock solution (1 mg/ml in 3% dimethyl sulphoxide in PBS) at 37° C. After 1 hour and 24 hours, samples of in each case 1 ml are taken, mixed with 1 ml of ethanol and left to stand at 4° C. for 20 minutes. After centrifugation (5 minutes at 3500 rpm), 100 μl of supernatant are taken for the HPLC analysis.

[15] = system: SW-480; test: Cleavage kinetics with cells (HPLC); details: Table 2b; 37° C.
Method: Cleavage Kinetics With Cells
as §8

[16] = system: SW 480; test: Growth inhibition test (MTT) for cytotoxic properties; format: cell-based, human; details: Table 1b
How it was run: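 IC50 values come from an MTT read at 540 nm (5 h at 37 °C, 5 mg/ml MTT stock), taken on day 3 and day 6. Cells (HT 29, SW 480; 50,000 cells/ml in RPMI/10% FCS) were pre-cultured 1 day, then compound in DMSO was added.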

[17] = Cleavage kinetics with human blood (HPLC); format: in vitro ADME; details: Table 2b; 37° C.
Excerpt: In Vitro Investigation of the Cleavability of the Glycoconjugates
Cleavage Kinetics With Human Blood

Row | SMILES | IC70 /μg/ml [2] [µg/mL] | IC70 /μg/ml [3] [µg/mL] | IC70 /μg/ml [4] [µg/mL] | IC70 /μg/ml [5] [µg/mL] | IC70 /μg/ml [6] [µg/mL] | IC70 /μg/ml [7] [µg/mL] | IC70 /μg/ml [8] [µg/mL] | IC70 /μg/ml [9] [µg/mL] | Individual dose tolerated in mg/kg of mouse, i.v. [11] | further results
1 | N[C@@H]1C=CC[C@@H]2CN(c3c(F)cc4c(=O)c(C(=O)O)cn(C5CC5)c4c3Cl)C[C@@H]21 (racemic) [Quinolone-a, 7-[(3aRS,4RS,7aSR)-4-amino-1,3,3a,4,7,7a-hexahydro-isoindol-2-yl]-8-chloro 1-cyclopropyl-6-fluoro-1,4-dihydro4-oxo-3-quinolinecarboxylic acid, reference compound] | 2 (≈ 4.79 µM) | 6 (≈ 14.4 µM) | < 0.3 | 20 (≈ 47.9 µM) | 3 (≈ 7.18 µM) | 3 (≈ 7.18 µM) | 0.5 (≈ 1.2 µM) | < 0.3 | < 25 mg/kg of mouse | % survivors Day 0 [1]: 100%; % survivors Day 20 [1]: 100%; % survivors Day 25 [1]: 100%; % survivors Day 30 [1]: 60%; % survivors Day 35 [1]: 40%; suppression of parent cell proliferation in vivo ([10]; 3 mg/kg, subcutaneously (FIG. 1)): massive suppression; IC50 ([12]; Mus musculus, 168 h, read-out: IC50 [μg/ml] CSF-induced proliferation of bone marrow parent cells of the mouse): 0.0002 µg/mL
2 | C[C@@H]1O[C@H](Oc2ccc(NC(=S)N[C@H](C)C(=O)NC3C=CCC4CN(c5c(F)cc6c(=O)c(C(=O)O)cn(C7CC7)c6c5Cl)CC43)cc2)[C@@H](O)[C@H](OCC(=O)[O-])[C@@H]1O.[Na+] (stereo partly drawn) [Example 12.3, N-{N'-[O-(3-O-Carboxymethyl-β-L-fucosyl)-4-hydroxy-phenylamino-thiocarbonyl]-D-alanyl}-quinolone-a, mono-sodium salt] | 162 | 5 | < 0.3 | 5 | 2 | 11 | 10 | 0.5 | > 200 mg/kg of mouse | IC50 [13]: 0.3 µM; % cleavage in hepatoma 1 hour [14]: 0%; % cleavage in hepatoma 24 hours [14]: 0%; % cleavage in SW-480 1 hour [15]: 0%; % cleavage in SW-480 24 hours [15]: 0%; IC50 [16]: 2 µM; inhibition in parent cell proliferation in vivo ([10]; up to 30 mg/kg, subcutaneously): no inhibition; IC50 [μg/ml] CSF-induced proliferation of bone marrow parent cells of the mouse [12]: 0.27 µg/mL; % cleavage in human blood 1 hour [17]: 0%; % cleavage in human blood 24 hours [17]: 0%
